The results in this text go back to US20220409554A1, “ASCORBIC ACID AND QUINONE COMPOUND FOR CANCER TREATMENT” (IC-MedTech Corp., priority 2021, published 2022).

What all share (assay type): cell-based
Assay [1] has as its system Lymphoma B lymphocytes (Raji). Kind of assay: Antiproliferative activity, trypan blue staining and automated counting. The settings on record: Homo sapiens.
The test system of assay [2] is Human glioblastoma cells (U87MG). Description: Antiproliferative activity, CELLTITER-GLO luminescent cell viability assay. The settings on record: U-87 MG, combination of vitamin C and compound A6 (weight ratio 100:1), concentration of the named component. As to the method: (§1) The antiproliferative activity of vitamin C (L-ascorbic acid) and/or compound A6 was determined in Colon26 (colon cancer), GS9L (glioblastoma), Jurkat (leukemia), MCF7 (breast cancer), and U87MG (glioblastoma). Jurkat cells were cultured in RPMI-1640 medium supplemented with 10% heat-inactivated fetal bovine serum (FBS), penicillin (100 U/mL), and streptomycin (100 μg/mL). Normal lymphocytes were cultured in the same medium supplemented with 10% FBS only. Adhesive cancer cell lines (Colon26, GS9L, MCF7, and U87MG) were cultured in DMEM supplemented with 10% FBS, penicillin (100 U/mL), and streptomycin (100 μg/mL). Adhesive non-cancer cell lines, FHC and MCF10A, were cultured in DMEM-F12 and DMEM, respectively, each supplemented with 10% FBS and growth factors. EOC2 cells were cultured in DMEM supplemented with 10% FBS. All cells were cultured in a humidified atmosphere containing 5% CO2 at 37° C. The adhesive cells were released using a trypsin-EDTA solution (0.05% of trypsin/EDTA) and subsequently washed with PBS. The cells were collected by centrifugation (1,000×g/10 min for leukemia lymphocytes; 1,500×g/15 min for normal lymphocytes; and 800×g/5 min for adhesive cells) and placed in a fresh medium without antibiotics and growth factors prior to treatment with vitamin C and/or compound A6. The cells (1×10^6 cells/mL for non-adhesive and 3×10^5 cells/mL for adhesive) were incubated with vitamin C and/or compound A6 for different time intervals in a cell incubator. At each time interval, aliquots were removed for analyses. For other cell lines, cell proliferation and viability were analyzed using the CELLTITER-GLO luminescent cell viability assay. Briefly, 100 μL aliquots of a cell suspension were placed in a well of a 96-well plate and incubated with vitamin C and/or compound A6 for 24 and 48 h in a humidified atmosphere containing 5% CO2 at 37° C. The CELLTITER-GLO reagent containing luciferin and luciferase (100 μL) was added to each well, followed by incubation. The luminescence produced by the luciferase-catalyzed conversion of luciferin into oxyluciferin by living cells was detected using a microplate reader in a chemiluminescent mode.

The test system of assay [3] is Colon cancer cells (Colon 26). The description is as above. The note with it: Mus musculus. As to the method:
as §1

Assay [4] deals with Normal breast epithelial cells (MCF10A). Described as above. The settings on record: Homo sapiens, MCF-10A, combination of vitamin C and compound A6 (weight ratio 100:1), concentration of the named component. As to the method:
as §1

Assay [5] has as its system Normal colon epithelial cells (FHC). The description is as above. The settings on record: combination of vitamin C and compound A6 (weight ratio 100:1), concentration of the named component. As for the experimental part: as §1
In assay [6] the test system is Breast cancer cells (MCF7). The description is as above. The note with it: Homo sapiens, combination of vitamin C and compound A6 (weight ratio 100:1), concentration of the named component. As for the experimental part:
as §1

The next assay concerns Normal microglial cells. The assay is described as above. The settings on record: combination of vitamin C and compound A6 (weight ratio 100:1), concentration of the named component. As to the method: as §1
The next assay concerns Normal lymphocytes. Kind of assay: Antiproliferative activity, trypan blue staining and automated counting. The note with it: Lymphocyte, combination of vitamin C and compound A6 (weight ratio 100:1), concentration of the named component. As for the experimental part: (§2) The antiproliferative activity of vitamin C (L-ascorbic acid) and/or compound A6 was determined in Colon26 (colon cancer), GS9L (glioblastoma), Jurkat (leukemia), MCF7 (breast cancer), and U87MG (glioblastoma). Jurkat cells were cultured in RPMI-1640 medium supplemented with 10% heat-inactivated fetal bovine serum (FBS), penicillin (100 U/mL), and streptomycin (100 μg/mL). Normal lymphocytes were cultured in the same medium supplemented with 10% FBS only. Adhesive cancer cell lines (Colon26, GS9L, MCF7, and U87MG) were cultured in DMEM supplemented with 10% FBS, penicillin (100 U/mL), and streptomycin (100 μg/mL). Adhesive non-cancer cell lines, FHC and MCF10A, were cultured in DMEM-F12 and DMEM, respectively, each supplemented with 10% FBS and growth factors. EOC2 cells were cultured in DMEM supplemented with 10% FBS. All cells were cultured in a humidified atmosphere containing 5% CO2 at 37° C. The adhesive cells were released using a trypsin-EDTA solution (0.05% of trypsin/EDTA) and subsequently washed with PBS. The cells were collected by centrifugation (1,000×g/10 min for leukemia lymphocytes; 1,500×g/15 min for normal lymphocytes; and 800×g/5 min for adhesive cells) and placed in a fresh medium without antibiotics and growth factors prior to treatment with vitamin C and/or compound A6. The cells (1×10^6 cells/mL for non-adhesive and 3×10^5 cells/mL for adhesive) were incubated with vitamin C and/or compound A6 for different time intervals in a cell incubator. At each time interval, aliquots were removed for analyses. For lymphocytes, cell proliferation and viability were analyzed by trypan blue staining and automated counting using a COUNTESS automated cell counter. Briefly, 10 μL of trypan blue (0.4%) was added to 10 μL of a cell suspension and incubated for 30 s, and 10 μL of the cell suspension was placed in a COUNTESS glass chamber. The numbers of live and dead cells in the suspension were counted automatically. The linear range of operation with the automated cell counter was 1×10^4-5×10^6 cells/mL, and the optimal cell size was in the range of […].

Assay [7] relates to Leukemia T lymphocytes (Jurkat). The assay is described as above. The note with it: Homo sapiens. As for the experimental part: as §2
Setting [8] is: combination of vitamin C and compound A6 (weight ratio 100:1), concentration of the named component, read-out: IC50.
[9] abbreviates: compound alone, read-out: IC50 (μM) Raji.
Setting [10] is: Colon26, compound alone, read-out: IC50 (μM) Colon26.
Setting [11] is: compound alone, read-out: IC50 (μM) Jurkat.

Molecules are shown by their SMILES. Like-named read-outs stand apart in the source and are kept apart here. A value given as a limit tells only on which side of the number the result lay.

`COC1=C(OC)C(=O)C(C)=CC1=O` [Compound A6, 2,3-dimethoxy-5-methyl-1,4-benzoquinone]: the IC50 in assay [1] (setting [8]) is 500 µM; in assay [1] (setting [9]), greater than 20 µM; in [2], 1100 µM; in assay [3] (setting [10]), greater than 20 µM; in [3] (setting [8]) it was 480 µM; in [4], greater than 2000 µM. The half-inhibitory concentration (IC50) in assay [5] was greater than 2000 µM; in assay [6], 350 µM; in the assay with Normal microglial cells, greater than 2000 µM; in the assay on Normal lymphocytes, greater than 2000 µM; in assay [7] (setting [8]) it was 300 µM; in [7] (setting [11]) it was 5 µM.

Regarding `O=C1O[C@H]([C@@H](O)CO)C(O)=C1O` [Vitamin C, L-ascorbic acid], the IC50 in [1] (setting [8]) was 5 µM; in assay [1] (setting [9]), greater than 2000 µM; in assay [2], 11 µM; in assay [3] (setting [10]) it was greater than 2000 µM; in assay [3] (setting [8]) it was 4.8 µM; in assay [4], greater than 20 µM. Further, the IC50 is greater than 20 µM in assay [5]; 3.5 µM in assay [6]; greater than 20 µM in the assay with Normal microglial cells; greater than 20 µM in the assay with Normal lymphocytes; 3 µM in assay [7] (setting [8]); 2000 µM in [7] (setting [11]).

Broadly, the IC50 is the concentration at which inhibition is half-maximal.
